According to patent US10344025B2, “GLS1 inhibitors for treating disease” (Board of Regents, The University of Texas System, priority 2014, dated 2019):

Tests used:
[1] = molecular target: purified recombinant human GAC (GLS1) (Homo sapiens (Human), UniProt O94925); experiment: GLS1 Enzymatic Activity Assay (dual-coupled enzymatic assay, resorufin/Amplex UltraRed readout); format: biochemical;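 also: glutamate from GAC coupled via glutamate oxidase and peroxidase to resorufin, read as fluorescence (ex 530, em 590 nm) kinetically or at 20 min, four-parameter logistic IC50 fit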
A549 cells = experiment: Proliferation Assay (A549 viability, Cell Titer Fluor, 72 hours); format: cell-based; details: Homo sapiens
Outline: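 Cell Titer Fluor fluorescence after 72 h compound treatment (0.5% DMSO, 37 °C, 5% CO2) of A549 cells plated 24 h earlier at 1000/well. Four-parameter logistic fitting gave IC50.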

purified recombinant human GAC (GLS1), sequence (O94925 other isoform, or with tags, fused parts or gaps): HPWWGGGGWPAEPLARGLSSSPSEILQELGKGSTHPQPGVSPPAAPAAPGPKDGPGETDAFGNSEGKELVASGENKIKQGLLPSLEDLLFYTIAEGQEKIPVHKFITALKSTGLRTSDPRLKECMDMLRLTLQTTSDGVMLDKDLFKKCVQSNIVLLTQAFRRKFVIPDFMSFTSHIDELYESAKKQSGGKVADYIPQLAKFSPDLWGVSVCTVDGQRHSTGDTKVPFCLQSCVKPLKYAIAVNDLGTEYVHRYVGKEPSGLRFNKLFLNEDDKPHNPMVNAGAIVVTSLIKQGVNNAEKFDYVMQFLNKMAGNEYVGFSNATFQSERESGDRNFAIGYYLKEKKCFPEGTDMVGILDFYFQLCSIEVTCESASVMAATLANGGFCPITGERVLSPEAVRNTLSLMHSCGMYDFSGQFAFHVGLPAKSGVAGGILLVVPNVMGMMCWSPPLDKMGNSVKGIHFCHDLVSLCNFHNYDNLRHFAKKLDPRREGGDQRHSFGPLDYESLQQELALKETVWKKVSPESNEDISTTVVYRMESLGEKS

Row | SMILES | IC50 [1] [nM] | EC50 (A549 cells; A549, 72 h) [nM] | EC50 (A549 cells) [nM]
1 | O=C(Cc1ccccn1)Nc1nnc(CCC(F)Cn2cc(C(=O)NCc3cc(C(F)(F)F)ccn3)nn2)s1 (centres unmarked) [Example 540, 1-(2-fluoro-4-(5-(2-(pyridin-2-yl)acetamido)-1,3,4-thiadiazol-2-yl)butyl)-N-((4-(trifluoromethyl)pyridin-2-yl)methyl)-1H-1,2,3-triazole-4-carboxamide] | < 100 |  | < 100
2 | CNC(=O)c1cn(CCCCc2ccc(NC(=O)CC3CCOCC3)nn2)nn1 [Example 547, N-methyl-1-(4-{6-[2-(oxan-4-yl)acetamido]pyridazin-3-yl}butyl)-1H-1,2,3-triazole-4-carboxamide] | 100 to 500 | 500 to 5000 | 
3 | CNC(=O)c1cn(CCCCc2ccc(NC(=O)CC3CCCC3)nn2)nn1 [Example 548, 1-{4-[6-(2-cyclopentylacetamido)pyridazin-3-yl]butyl}-N-methyl-1H-1,2,3-triazole-4-carboxamide] | 100 to 500 | 500 to 5000 | 
4 | O=C(Cc1cccc(OC(F)(F)F)c1)Nc1ccc(CCCCn2cc(C(=O)NCC(CO)CO)nn2)nn1 [Example 552, N-[3-hydroxy-2-(hydroxymethyl)propyl]-1-[4-(6-{2-[3-(trifluoromethoxy)phenyl]acetamido}pyridazin-3-yl)butyl]-1H-1,2,3-triazole-4-carboxamide] | 500 to 5000 | > 5000 | 
5 | O=C(Cc1ccccn1)Nc1nnc(CCCCn2cc(C(=O)NCc3cccc(OC(F)(F)F)c3)nn2)s1 [Example 553, 1-(4-{5-[2-(pyridin-2-yl)acetamido]-1,3,4-thiadiazol-2-yl}butyl)-N-{[3-(trifluoromethoxy)phenyl]methyl}-1H-1,2,3-triazole-4-carboxamide] | < 100 | < 100 | 
6 | O=C(Cc1ccccn1)Nc1nnc(CCCCn2cc(C(=O)NCc3cc(OC(F)(F)F)ccc3F)nn2)s1 [Example 554, N-{[2-fluoro-5-(trifluoromethoxy)phenyl]methyl}-1-(4-{5-[2-(pyridin-2-yl)acetamido]-1,3,4-thiadiazol-2-yl}butyl)-1H-1,2,3-triazole-4-carboxamide] | < 100 | < 100 | 
7 | CNC(=O)c1nnc(CCC(F)Cn2cc(C(=O)NCc3cc(OC(F)(F)F)ccc3F)nn2)s1 (centres unmarked) [Example 555, 5-{3-fluoro-4-[4-({[2-fluoro-5-(trifluoromethoxy)phenyl]methyl}carbamoyl)-1H-1,2,3-triazol-1-yl]butyl}-N-methyl-1,3,4-thiadiazole-2-carboxamide] | < 100 | 100 to 500 | 
8 | CNC(=O)c1nnc(CCC(F)Cn2cc(C(=O)NCc3ccccc3)nn2)s1 (centres unmarked) [Example 556, 5-{4-[4-(benzylcarbamoyl)-1H-1,2,3-triazol-1-yl]-3-fluorobutyl}-N-methyl-1,3,4-thiadiazole-2-carboxamide] | 100 to 500 | 500 to 5000 | 
9 | CNC(=O)c1nnc(CCC(F)Cn2cc(C(=O)NCc3ccccn3)nn2)s1 (centres unmarked) [Example 557, 5-(3-fluoro-4-{4-[(pyridin-2-ylmethyl)carbamoyl]-1H-1,2,3-triazol-1-yl}butyl)-N-methyl-1,3,4-thiadiazole-2-carboxamide] | 500 to 5000 | 500 to 5000 | 
10 | O=C(Cc1cccc(OC(F)(F)F)c1)Nc1nnc(CCC(F)Cn2cc(C(=O)NCC3COC3)nn2)s1 (centres unmarked) [Example 558, 1-[2-fluoro-4-(5-{2-[3-(trifluoromethoxy)phenyl]acetamido}-1,3,4-thiadiazol-2-yl)butyl]-N-(oxetan-3-ylmethyl)-1H-1,2,3-triazole-4-carboxamide] | < 100 | 500 to 5000 | 
11 | Cc1ccc(CNC(=O)c2cn(CC(F)CCc3nnc(NC(=O)Cc4cccc(OC(F)(F)F)c4)s3)nn2)cn1 (centres unmarked) [Example 559, 1-[2-fluoro-4-(5-{2-[3-(trifluoromethoxy)phenyl]acetamido}-1,3,4-thiadiazol-2-yl)butyl]-N-[(6-methylpyridin-3-yl)methyl]-1H-1,2,3-triazole-4-carboxamide] | < 100 | 100 to 500 | 
12 | CC(C)(CO)CNC(=O)c1cn(CCCCc2ccc(NC(=O)Cc3cccc(OC(F)(F)F)c3)nn2)nn1 [Example 560, N-(3-hydroxy-2,2-dimethylpropyl)-1-[4-(6-{2-[3-(trifluoromethoxy)phenyl]acetamido}pyridazin-3-yl)butyl]-1H-1,2,3-triazole-4-carboxamide] | < 100 | 100 to 500 | 
13 | CNC(=O)c1cn(CC(F)CCc2nnc(C(=O)NCc3cccc(OC(F)(F)F)c3)s2)nn1 (centres unmarked) [Example 561, 5-{3-fluoro-4-[4-(methylcarbamoyl)-1H-1,2,3-triazol-1-yl]butyl}-N-{[3-(trifluoromethoxy)phenyl]methyl}-1,3,4-thiadiazole-2-carboxamide] | < 100 | 100 to 500 | 
14 | CNC(=O)c1cn(CC(F)CCc2nnc(C(=O)NCc3cc(OC(F)(F)F)ccc3F)s2)nn1 (centres unmarked) [Example 562, 5-{3-fluoro-4-[4-(methylcarbamoyl)-1H-1,2,3-triazol-1-yl]butyl}-N-{[2-fluoro-5-(trifluoromethoxy)phenyl]methyl}-1,3,4-thiadiazole-2-carboxamide] | < 100 | 100 to 500 | 

Second part, led by results:

Row | IC50 [1] [nM] | EC50 (A549 cells; A549, 72 h) [nM] | SMILES | EC50 (A549 cells) [nM]
15 | < 100 | 500 to 5000 | NC(=O)c1cn(CC(F)CCc2nnc(NC(=O)Cc3cccc(OC(F)(F)F)c3)s2)nn1 (centres unmarked) [Example 530, 1-[2-fluoro-4-(5-{2-[3-(trifluoromethoxy)phenyl]acetamido}-1,3,4-thiadiazol-2-yl)butyl]-1H-1,2,3-triazole-4-carboxamide] | 
16 | < 100 | 100 to 500 | CCNC(=O)c1cn(CC(F)CCc2nnc(NC(=O)Cc3cccc(OC(F)(F)F)c3)s2)nn1 (centres unmarked) [Example 531, N-ethyl-1-[2-fluoro-4-(5-{2-[3-(trifluoromethoxy)phenyl]acetamido}-1,3,4-thiadiazol-2-yl)butyl]-1H-1,2,3-triazole-4-carboxamide] | 
17 | < 100 | 100 to 500 | COCCNC(=O)c1cn(CC(F)CCc2nnc(NC(=O)Cc3cccc(OC(F)(F)F)c3)s2)nn1 (centres unmarked) [Example 532, 1-[2-fluoro-4-(5-{2-[3-(trifluoromethoxy)phenyl]acetamido}-1,3,4-thiadiazol-2-yl)butyl]-N-(2-methoxyethyl)-1H-1,2,3-triazole-4-carboxamide] | 
18 | < 100 | < 100 | O=C(Cc1cccc(OC(F)(F)F)c1)Nc1nnc(CCC(F)Cn2cc(C(=O)NCc3ccccn3)nn2)s1 (centres unmarked) [Example 533, 1-[2-fluoro-4-(5-{2-[3-(trifluoromethoxy)phenyl]acetamido}-1,3,4-thiadiazol-2-yl)butyl]-N-(pyridin-2-ylmethyl)-1H-1,2,3-triazole-4-carboxamide] | 
19 | < 100 | 100 to 500 | O=C(Cc1cccc(OC(F)(F)F)c1)Nc1nnc(CCC(F)Cn2cc(C(=O)NC3CC3)nn2)s1 (centres unmarked) [Example 534, N-cyclopropyl-1-[2-fluoro-4-(5-{2-[3-(trifluoromethoxy)phenyl]acetamido}-1,3,4-thiadiazol-2-yl)butyl]-1H-1,2,3-triazole-4-carboxamide] | 
20 | < 100 | 100 to 500 | O=C(Cc1cccc(OC(F)(F)F)c1)Nc1nnc(CCC(F)Cn2cc(C(=O)NCC3CC3)nn2)s1 (centres unmarked) [Example 535, N-(cyclopropylmethyl)-1-[2-fluoro-4-(5-{2-[3-(trifluoromethoxy)phenyl]acetamido}-1,3,4-thiadiazol-2-yl)butyl]-1H-1,2,3-triazole-4-carboxamide] | 
21 | < 100 | 100 to 500 | O=C(Cc1cccc(OC(F)(F)F)c1)Nc1nnc(CCC(F)Cn2cc(C(=O)NCC(F)(F)F)nn2)s1 (centres unmarked) [Example 536, 1-[2-fluoro-4-(5-{2-[3-(trifluoromethoxy)phenyl]acetamido}-1,3,4-thiadiazol-2-yl)butyl]-N-(2,2,2-trifluoroethyl)-1H-1,2,3-triazole-4-carboxamide] | 
22 | < 100 | 100 to 500 | O=C(Cc1cccc(OC(F)(F)F)c1)Nc1nnc(CCC(F)Cn2cc(C(=O)NCc3ncccc3F)nn2)s1 (centres unmarked) [Example 537, 1-[2-fluoro-4-(5-{2-[3-(trifluoromethoxy)phenyl]acetamido}-1,3,4-thiadiazol-2-yl)butyl]-N-[(3-fluoropyridin-2-yl)methyl]-1H-1,2,3-triazole-4-carboxamide] | 
23 | < 100 | 100 to 500 | CNC(=O)c1cn(CC(F)CCn2cc(NC(=O)Cc3cccc(OC(F)(F)F)c3)nn2)nn1 (centres unmarked) [Example 538, 1-[2-fluoro-4-(4-{2-[3-(trifluoromethoxy)phenyl]acetamido}-1H-1,2,3-triazol-1-yl)butyl]-N-methyl-1H-1,2,3-triazole-4-carboxamide] | 
24 | < 100 | 100 to 500 | CNC(=O)c1cn(CC(F)CCn2cc(NC(=O)Cc3cc(OC(F)(F)F)ccc3F)nn2)nn1 (centres unmarked) [Example 539, 1-[2-fluoro-4-(4-{2-[2-fluoro-5-(trifluoromethoxy)phenyl]acetamido}-1H-1,2,3-triazol-1-yl)butyl]-N-methyl-1H-1,2,3-triazole-4-carboxamide] | 
25 | < 100 | 100 to 500 | CNC(=O)c1cn(CCCCc2ccc(NC(=O)Cc3cccc(Br)c3)nn2)nn1 [Example 542, 1-(4-{6-[2-(3-bromophenyl)acetamido]pyridazin-3-yl}butyl)-N-methyl-1H-1,2,3-triazole-4-carboxamide] | 
26 | < 100 | 500 to 5000 | CNC(=O)c1cn(CCCCc2ccc(NC(=O)Cc3cccc(S(C)(=O)=O)c3)nn2)nn1 [Example 543, 1-(4-{6-[2-(3-methanesulfonylphenyl)acetamido]pyridazin-3-yl}butyl)-N-methyl-1H-1,2,3-triazole-4-carboxamide] | 
27 | < 100 | 100 to 500 | CNC(=O)c1cn(CCCCc2ccc(NC(=O)Cc3cccc(-c4ccccn4)c3)nn2)nn1 [Example 545, N-methyl-1-[4-(6-{2-[3-(pyridin-2-yl)phenyl]acetamido}pyridazin-3-yl)butyl]-1H-1,2,3-triazole-4-carboxamide] | 
28 | < 100 | 100 to 500 | O=C(Cc1cccc(OC(F)(F)F)c1)Nc1ccc(CCCCn2cc(C(=O)NCC3COC3)nn2)nn1 [Example 550, N-(oxetan-3-ylmethyl)-1-[4-(6-{2-[3-(trifluoromethoxy)phenyl]acetamido}pyridazin-3-yl)butyl]-1H-1,2,3-triazole-4-carboxamide] | 
